Data on two compounds can be found in ChEMBL document CHEMBL1130253 (J Med Chem, 1997).

Some results are limits rather than exact numbers.

The test system of series [1] is CCRF-CEM. The series is described as follows: Concentration required to inhibit against HIV strain IIIB in CEM cell. The series is classed as functional. As to conditions: Homo sapiens, read-out: ED50 (the source's name).
Series [2] can be described thus: Minimum cellular toxicity against the HIV strain IIIB in CEM cells was determined. The note with it: human, read-out: TD50 (the source's name). The series is classed as cell-based, CCRF-CEM.

Turning to `Cc1c(O)cccc1C(=O)N[C@@H](CSc1ccc2ccccc2c1)[C@H](O)Cc1ccccc1C(=O)NC(C)(C)C`, the EC50 in series [1] amounted to 970 nM.
In the case of `Cc1c(O)cccc1C(=O)N[C@@H](Cc1ccccc1)[C@H](O)CN1C[C@H]2CCCC[C@H]2C[C@H]1C(=O)NC(C)(C)C`, the EC50 in series [1] is 33 nM. In addition, in series [2], the CC50 is above 5000 nM.
